This is an account of results in PubChem BioAssay AID1963864 (Molecular Pharmacology Branch, DTP, NCI, 2024).

For orientation: viability, T/C means the result in the treated group divided by that in the control group, in per cent. By IC50 is commonly meant the concentration needed to halve the response being measured.

For this test, the system named is KRAS PDC multicell spheroid viability. Put plainly: Anticancer human tumor 521955-158-R6-J3-PDC patient-derived pancreatic carcinoma cell line growth inhibition [KRAS2]. The settings on record: for viability, T/C: stronger effect = lower value. The source says: Multicellular complex tumor spheroid response to RAS pathway inhibitors in combination with a targeted agents in patient-derived cell lines with oncogenic KRAS variants from multiple cancer types
A high-throughput screen of multi-cell type tumor spheroids was designed to identify active combinations of targeted small molecules and KRAS pathway inhibitors. Complex spheroids include a stromal component modeled by human endothelial cells (HUVEC) and fibroblasts modeled by human mesenchymal stem cells (MSCs). The concentration ranges selected for each drug and investigational agent were based upon clinically achievable concentrations if the clinical Cmax of the agent was known.
Compounds. The drugs and investigational agents: BI-3406 (NSC825286), BAY-293 (NSC824723), batoprotafib (TNO155; NSC825523), sotorasib (AMG 510; NSC818433), MRTX1257 (NSC819558), elimusertib (BAY 1895344; NSC800525), molibresib (GSK525762; NSC774829), temuterkib (LY3214996; NSC803410), venetoclax (NSC766270), alisertib (NSC759677), olaparib (NSC753686), talazoparib (NSC767125), erdafitinib (NSC781556), ipatasertib (NSC767898), cabozantinib (NSC761068), nintedanib (NSC756659), abemaciclib (NSC768073), docetaxel (NSC628503), trametinib (NSC758246), and sapanisertib (NSC764658) were obtained from the National Cancer Institute (NCI) Developmental Therapeutics Program Chemical Repository. The FDA-approved anticancer drug set is available from the Developmental Therapeutics Program. […] The stock solutions were prepared in dimethyl sulfoxide (DMSO, Sigma-Aldrich, St. Louis, MO, cat. D2650) at 800-fold the tested concentration and stored at -70 degrees C prior to their use. All drugs and investigational agents were tested over a range starting from a high concentration at or near the clinical Cmax and decreasing in half-log increments. If the clinical Cmax for an agent had not been determined, the highest concentration tested was 10 microM.
Cell Culture. All cells were maintained in an incubator at 37 degrees C and 5% CO2 with 95% humidity. The PDC lines were cultured according to standard operating procedures established by the NCI PDMR (https://pdmr.cancer.gov/sops/default.htm). Briefly, all PDCs were thawed and cultured in Matrigel-coated flasks prepared with a working solution of 1X Ham's F-12 nutrient mix, without supplementation (Invitrogen, Waltham, MA, cat. 11765054), 100 U/mL penicillin-streptomycin (Invitrogen, cat. 15140122), and 2.5% Matrigel (Corning Inc., Corning, NY, cat. 354248) for the first three passages. All PDCs were cultured in complete DMEM/F-12 media containing advanced DMEM/F-12 (Invitrogen, cat. 12634028), 4.9% defined fetal bovine serum, heat inactivated (HyClone Laboratories Inc., Logan, UT, cat. SH30070.03HI), 389 ng/mL hydrocortisone (Sigma-Aldrich, cat. H4001), 9.7 ng/mL human EGF recombinant protein (Invitrogen, cat. PHG0313), 23.4 microg/mL adenine (Sigma-Aldrich, cat. A2786), 97.3 U/mL penicillin-streptomycin (Invitrogen, cat. 15140122), 1.9 mM L-glutamine (Invitrogen, cat. 25030081), and 9.7 microM Y-27632 dihydrochloride (Tocris Bioscience, Bristol, United Kingdom, cat. 1254). The PDCs were cultured in complete DMEM/F12 media without 9.7 microM Y-27632 dihydrochloride for at least two passages prior to the screen. The established cell line HOP-62 was cultured in RPMI 1640 medium, HEPES (Invitrogen, cat. 22400105) with 10% defined fetal bovine serum (HyClone Laboratories Inc., cat. SH30070.03) and 2 mM L-glutamine (Invitrogen, cat. 25030081). The pooled donor HUVEC were cultured in endothelial cell growth medium 2 (PromoCell, Heidelberg, Germany, cat. C-22011) and the hMSC were cultured in mesenchymal stem cell growth medium 2 (PromoCell, cat. C-28009). For all experiments, HUVEC and hMSC were used at passages </=5, while the malignant cell lines were used at passages </=15. […]

Setting [1] is: compound alone, run of 08/26/2021.
Setting [2] is: compound alone, run of 09/02/2021.
Where [3] appears, read: curve of first compound, second compound 0.1 µM.
Setting [4] is: curve of first compound, second compound 0.316 µM.
The mark [5] stands for this setting: curve of first compound, second compound 1 µM.
Setting [6] is: curve of first compound, second compound 3.16 µM.
Where [7] appears, read: curve of first compound, second compound 10 µM.
Where [8] appears, read: second compound 0.1 µM, first compound 0.01 µM.
Setting [9] is: second compound 0.1 µM, first compound 0.0316 µM.
Setting [10] is: second compound 0.1 µM, first compound 0.1 µM.
Setting [11] is: second compound 0.316 µM, first compound 0.01 µM.
Setting [12] is: second compound 0.316 µM, first compound 0.0316 µM.
Setting [13] is: second compound 0.316 µM, first compound 0.1 µM.
Setting [14] is: second compound 1 µM, first compound 0.01 µM.
[15] abbreviates: second compound 1 µM, first compound 0.0316 µM.
Setting [16] is: second compound 1 µM, first compound 0.1 µM.
Setting [17] is: second compound 3.16 µM, first compound 0.01 µM.
Setting [18] is: second compound 3.16 µM, first compound 0.0316 µM.
[19] abbreviates: second compound 3.16 µM, first compound 0.1 µM.
[20] abbreviates: second compound 10 µM, first compound 0.01 µM.
Setting [21] is: second compound 10 µM, first compound 0.0316 µM.
[22] abbreviates: second compound 10 µM, first compound 0.1 µM.
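Note: drug exposure lasted seven days.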
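Throughout, for viability, T/C: 100% = DMSO vehicle wells and lower means fewer viable cells.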

With `C=CC(=O)N1CCN(c2nc(=O)n(-c3c(C)ccnc3C(C)C)c3nc(-c4c(O)cccc4F)c(F)cc23)C(C)C1` (centres undefined), the viability, T/C is 94.8% [middle of 16 runs] (compound 0.1 µM) and 97.2% [middle of 16 runs] (compound 0.316 µM). For the same compound, the IC50 reads like this: (compound alone, run of 08/19/2021) more than 10 µM; under setting [1], more than 10 µM; under setting [2], more than 10 µM.
For `CNCc1ccccc1-c1csc(C(C)Nc2nc(C)nc3cc(OC)c(OC)cc23)c1` (centres undefined), the viability, T/C was 84.1% [middle of 16 runs] (compound 0.1 µM), 79% [middle of 16 runs] (compound 0.316 µM) and 0.23% [middle of 15 runs] (compound 10 µM). The concentration for half-maximal inhibition (IC50) reads like this: under setting [1], 1.48 µM [middle of 5 runs]; under setting [2], 1.4 µM [middle of 5 runs].
On to `COC(=O)c1ccc2c(C(=Nc3ccc(N(C)C(=O)CN4CCN(C)CC4)cc3)c3ccccc3)c(O)[nH]c2c1`, for which the viability, T/C is, setting by setting: (compound 0.0316 µM) 96.5% [middle of 5 runs]; (compound 0.1 µM) 109% [middle of 5 runs]; (compound 10 µM) 0.34% [middle of 5 runs]. Besides, where the note is “curve of compound”, the IC50 was 3.54 µM [middle of 5 runs].
`COc1cc2nc(C)nc(NC(C)c3cc(N)cc(C(F)(F)F)c3)c2cc1OC1CCOC1` (centres undefined): the viability, T/C was 86.7% [middle of 17 runs] (compound 0.1 µM) and 86.7% [middle of 17 runs] (compound 0.316 µM). Also, under setting [1], the IC50 is 6.52 µM [middle of 5 runs].
For the compound `COc1cc2nccc(Oc3ccc(NC(=O)C4(C(=O)Nc5ccc(F)cc5)CC4)cc3)c2cc1OC`, the viability, T/C (compound 0.316 µM) was 95.7% [middle of 5 runs]. Moreover, under “curve of compound”, the 50% inhibitory concentration (IC50) is more than 10 µM.
For the compound `CC(=O)OC12COC1CC(O)C1(C)C(=O)C(O)C3=C(C)C(OC(=O)C(O)C(NC(=O)OC(C)(C)C)c4ccccc4)CC(O)(C(OC(=O)c4ccccc4)C21)C3(C)C` (centres undefined) + C=CC(=O)N1CCN(c2nc(=O)n(-c3c(C)ccnc3C(C)C)c3nc(-c4c(O)cccc4F)c(F)cc23)C(C)C1, the IC50 runs as follows: under setting [3], more than 3.16 µM; under setting [4], more than 3.16 µM; under setting [5], more than 3.16 µM; under setting [6], more than 3.16 µM; under setting [7], more than 3.16 µM. Besides, the viability, T/C is, setting by setting: under setting [8], 86.2%; under setting [9], 74.1%; under setting [10], 77.7%; (second compound 0.1 µM, first compound 0.316 µM) 94.7%; (second compound 0.1 µM, first compound 1 µM) 94.3%; (second compound 0.1 µM, first compound 3.16 µM) 114%. The viability, T/C under setting [11] was 86%; the viability, T/C under setting [12] was 82.5%; the viability, T/C under setting [13] was 74.4%; the viability, T/C (second compound 0.316 µM, first compound 0.316 µM) was 77.1%; the viability, T/C (second compound 0.316 µM, first compound 1 µM) was 88.4%; the viability, T/C (second compound 0.316 µM, first compound 3.16 µM) is 113%. The viability, T/C reads like this: under setting [14], 90.6%; under setting [15], 87%; under setting [16], 81.4%; (second compound 1 µM, first compound 0.316 µM) 62.5%; (second compound 1 µM, first compound 1 µM) 65.6%; (second compound 1 µM, first compound 3.16 µM) 69%. The viability, T/C is 97.3% under setting [17]; 88.1% under setting [18]; 90.3% under setting [19]; 101% (second compound 3.16 µM, first compound 0.316 µM); 98.4% (second compound 3.16 µM, first compound 1 µM); 104% (second compound 3.16 µM, first compound 3.16 µM). For the same compound, the viability, T/C under setting [20] was 98.9%; the viability, T/C under setting [21] was 92.2%; the viability, T/C under setting [22] is 90.1%; the viability, T/C (second compound 10 µM, first compound 0.316 µM) is 73.2%; the viability, T/C (second compound 10 µM, first compound 1 µM) is 86.8%; the viability, T/C (second compound 10 µM, first compound 3.16 µM) was 76.8%.
For `CN(C)C/C=C/C(=O)Nc1cc2c(Nc3ccc(F)c(Cl)c3)ncnc2cc1O[C@H]1CCOC1` + C=CC(=O)N1CCN(c2nc(=O)n(-c3c(C)ccnc3C(C)C)c3nc(-c4c(O)cccc4F)c(F)cc23)C(C)C1, the IC50 is more than 0.1 µM under setting [3]; more than 0.1 µM under setting [4]; more than 0.1 µM under setting [5]; more than 0.1 µM under setting [6]; more than 0.1 µM under setting [7]. Also, the viability, T/C runs as follows: (second compound 0.1 µM, first compound 0.000316 µM) 101%; (second compound 0.1 µM, first compound 0.001 µM) 92.9%; (second compound 0.1 µM, first compound 0.00316 µM) 85.4%; under setting [8], 72.8%; under setting [9], 68.6%; under setting [10], 66.6%. Besides, the viability, T/C is 119% (second compound 0.316 µM, first compound 0.000316 µM); 112% (second compound 0.316 µM, first compound 0.001 µM); 79.9% (second compound 0.316 µM, first compound 0.00316 µM); 81.7% under setting [11]; 71.2% under setting [12]; 66.3% under setting [13]. The viability, T/C reads like this: (second compound 1 µM, first compound 0.000316 µM) 113%; (second compound 1 µM, first compound 0.001 µM) 92.2%; (second compound 1 µM, first compound 0.00316 µM) 102%; under setting [14], 79.8%; under setting [15], 67.6%; under setting [16], 69.4%. The viability, T/C runs as follows: (second compound 3.16 µM, first compound 0.000316 µM) 112%; (second compound 3.16 µM, first compound 0.001 µM) 97%; (second compound 3.16 µM, first compound 0.00316 µM) 83.7%; under setting [17], 79%; under setting [18], 69.6%; under setting [19], 69.7%. Also, the viability, T/C is 73.2% (second compound 10 µM, first compound 0.000316 µM); 109% (second compound 10 µM, first compound 0.001 µM); 66.7% (second compound 10 µM, first compound 0.00316 µM); 62.3% under setting [20]; 58.5% under setting [21]; 65.3% under setting [22].
